Where two headings read alike, the source gives them in different places.
Tests used:
[1] = Unbound fraction in human plasma (rapid equilibrium dialysis); format: in vitro ADME
Description: The plasma or liver microsomal protein bindings were performed using a rapid equilibrium dialysis device and cellulose membranes with a molecular weight cutoff of 8000 (Thermo Scientific, Rockford, IL, USA). The rat and human plasma samples (200 μL) containing SPN at 10 and 50 μM, respectively, were dialyzed against a dialysis buffer, phosphate-buffered saline (PBS, 400 μL). The loaded dialysis plate was covered with sealing tape, placed on an orbital shaker at approximately 200 rpm, and incubated at 37 °C for 4 h. Thereafter, samples (100 μL) from both PBS and plasma chambers were collected and mixed with an equal volume of blank plasma and PBS, respectively. All samples were stored at −80 °C until LC-MS/MS analysis. The unbound fraction of SPN in human (or rat) plasma was calculated by dividing the SPN concentration in PBS by that in plasma.

CYP3A4 = test system: CYP3A4; design: method as in PMID 29753067; conditions: cited from earlier work
CYP2C9 = molecular target: T1, CYP2C9 (Homo sapiens, UniProt P11712); assay: Inhibition of other CYP2C9-specific pathways (diclofenac 4′-hydroxylation, losartan oxidation) in human liver microsomes; format: biochemical
T1 construct: tissue Corning Life Sciences; host or cells: pooled human liver microsomes, 150 donors
Description: The auto-optimized mass transitions were m/z 312 > 231 and m/z 437 > 207.1 for quantification of 4′-hydroxydiclofenac and losartan carboxylic acid, respectively. HPLC conditions were the same as those in the cocktail assay.
(§1) The IC50 values were calculated via nonlinear least-squares regression analysis from logarithmic plots of inhibitor concentration versus percentage of activity remaining after inhibition, using SigmaPlot (ver. 14.0; Systat Software Inc, Chicago, IL, USA). The Ki values were determined from the equations for a single substrate single inhibitor model and the software available in the SigmaPlot Enzyme Kinetics module. Competitive, non-competitive, uncompetitive, or mixed inhibition models were evaluated and ranked according to the best fit based on Akaike Information Criterion (AIC) values. For visual inspection, the data were presented as Dixon plots.

CYP2C8 = molecular target: T2, CYP2C8 (Homo sapiens, UniProt P10632); assay: Reversible CYP2C8 inhibition, cocktail assay (rosiglitazone p-hydroxylase) in human liver microsomes; format: biochemical; conditions: human liver microsomes 0.1 mg/mL, rosiglitazone probe, n = 3
T2 construct: tissue Corning Life Sciences; host or cells: pooled human liver microsomes, 150 donors
T2 sequence (P10632 1-490): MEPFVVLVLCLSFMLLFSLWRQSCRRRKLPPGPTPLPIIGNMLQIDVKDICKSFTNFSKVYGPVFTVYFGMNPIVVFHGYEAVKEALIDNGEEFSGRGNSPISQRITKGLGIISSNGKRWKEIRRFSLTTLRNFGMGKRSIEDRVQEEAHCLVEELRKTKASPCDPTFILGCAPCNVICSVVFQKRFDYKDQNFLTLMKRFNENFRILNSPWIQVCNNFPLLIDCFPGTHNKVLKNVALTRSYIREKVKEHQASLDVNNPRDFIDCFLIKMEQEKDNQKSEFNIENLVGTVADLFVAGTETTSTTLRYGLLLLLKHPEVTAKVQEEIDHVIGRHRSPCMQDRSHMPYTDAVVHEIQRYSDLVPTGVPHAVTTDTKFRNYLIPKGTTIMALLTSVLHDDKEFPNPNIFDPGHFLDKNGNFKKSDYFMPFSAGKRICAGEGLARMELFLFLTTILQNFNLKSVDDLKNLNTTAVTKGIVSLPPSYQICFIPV
Description: The inhibitory effects of SPN on CYP1A2, CYP2A6, CYP2B6, CYP2C8, CYP2C9, CYP2C19, CYP2D6, CYP2E1, and CYP3A4 were evaluated in pooled human liver microsomes through the use of specific CYP probe substrates (cocktail assay), as previously described with a slight modification. Concentrations of each CYP probe in Table 1 were used close to their reported Km values.
Briefly, a 90-µL incubation mixture, including pooled human liver microsomes (final concentration 0.1 mg/mL), 50 mM phosphate buffer (pH 7.4), each CYP-probe substrate cocktail set, and SPN (0–50 μM), was pre-incubated for 5 min at 37 °C. SPN was dissolved in methanol and spiked into the incubation mixture to a final concentration of 0.5% methanol. […]
as §1, with “For visual inspection, the data were presented as Dixon plots.” left out

[2] = Unbound fraction in human liver microsomes (rapid equilibrium dialysis); format: in vitro ADME; conditions: microsomal protein 0.1 mg/mL, n = 3
Description: The human liver microsomal incubation mixtures (final concentration 0.1 mg/mL) without NADPH generating system were used to determine the unbound fraction of SPN. Other procedures were similar to those of plasma protein binding assay.

T1 sequence (P11712 whole entry): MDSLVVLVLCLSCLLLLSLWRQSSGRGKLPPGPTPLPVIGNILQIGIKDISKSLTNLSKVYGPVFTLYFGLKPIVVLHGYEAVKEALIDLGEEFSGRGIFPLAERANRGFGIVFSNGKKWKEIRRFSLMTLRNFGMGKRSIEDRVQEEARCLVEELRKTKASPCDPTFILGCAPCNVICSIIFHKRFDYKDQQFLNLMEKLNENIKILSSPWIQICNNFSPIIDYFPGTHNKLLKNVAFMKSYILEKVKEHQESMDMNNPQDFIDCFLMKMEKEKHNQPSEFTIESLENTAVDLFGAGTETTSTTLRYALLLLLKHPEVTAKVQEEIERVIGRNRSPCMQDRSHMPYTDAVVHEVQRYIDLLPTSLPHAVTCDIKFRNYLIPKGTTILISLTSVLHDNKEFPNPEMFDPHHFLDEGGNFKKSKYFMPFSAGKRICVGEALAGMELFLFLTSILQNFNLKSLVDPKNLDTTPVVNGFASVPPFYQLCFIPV

- fraction unbound at 4 h, 10 µM ([1]; human, human plasma, 10 μM, 37 °C, 4 h, n = 3, read-out: free fraction in human plasma): 0.000457 ± 6.12e-05
- fraction unbound at 4 h, 50 µM ([1]; human, human plasma, 50 μM, 37 °C, 4 h, n = 3, read-out: free fraction in human plasma): 0.000927 ± 0.0004
- fraction unbound at 4 h ([1]; human, human plasma, 10 and 50 μM, read-out: plasma protein binding, human): < 0.001
- fraction unbound at 4 h ([1]; mean over human and rat plasma in the range of 10 and 50 μM, read-out: mean unbound fraction in plasma): 0.000574
- IC50 (CYP2C9; IC50, CYP2C9-catalyzed diclofenac 4′-hydroxylation, diclofenac 5 μM): 0.879 ± 0.0888 µM
- IC50 (CYP2C9; losartan 5 μM, read-out: IC50, CYP2C9-catalyzed losartan oxidation): 0.455 ± 0.0486 µM
- IC50 (CYP2C8): 13.6 ± 3.15 µM
- fraction unbound at 4 h, 10 µM ([2]; 10 μM): 0.00621 ± 0.000405
- fraction unbound at 4 h, 50 µM ([2]; 50 μM): 0.00724 ± 0.0017
Structure (SMILES): CC(C)=CCc1cc([C@@H]2CC(=O)c3ccc(O)c(CC=C(C)C)c3O2)cc(CC=C(C)C)c1O [SPN, (‒)-Sophoranone]
- IC50 (CYP3A4; range over other CYP3A4 substrates): 5.62 to 38.4 µM
- Ki (CYP3A4; read-out: Ki, CYP3A4-catalyzed bufalin 5′-hydroxylation): 2.17 ± 0.29 µM

Reference: PMC7238241, “Lack of Correlation between In Vitro and In Vivo Studies on the Inhibitory Effects of (‒)-Sophoranone on CYP2C9 Is Attributable to Low Oral Absorption and Extensive Plasma Protein Binding of (‒)-Sophoranone” (Pharmaceutics, 2020)
